According to patent US20240225893A9, “SUSTAINED-RELEASE IMPLANTS FOR LOWERING INTRAOCULAR PRESSURE WITH EXTENDED DURATION OF EFFECT” (Allergan, Inc., priority 2017, published 2024):
Like-named read-outs stand apart in the source and are kept apart here.

Tests used:
[1] = Systemic pharmacokinetics after topical bimatoprost (study 6177-110); format: in vivo; conditions: monkey, blood, LLOQ 0.100 ng/mL (AGN-191522)
[2] = Aqueous humor pharmacokinetics after topical bimatoprost (study PK10130); format: in vivo; conditions: dog; topical bimatoprost 0.03% QD; LLOQ 0.200 ng/mL (AGN-192024)
[3] = human; topical bimatoprost 0.03% QD; cited from earlier work
[4] = Systemic pharmacokinetics after topical bimatoprost (study PK-98-119); format: in vivo; conditions: human; topical bimatoprost 0.03% QD
[5] = Systemic pharmacokinetics after intracameral Bimatoprost SR Gen 1 (study TX09051); format: in vivo; conditions: monkey; intracameral 30 μg (Gen 1)
[6] = tested on: prostaglandin (PG) sensitive receptors; conditions: cited from earlier work
glaucoma patients = assay: Phase 1/2 prospective 24-month paired-eye clinical trial of BimSR (Example 1); format: in vivo, human; conditions: month 24, topical bimatoprost solution 0.03% once a day
Method: A phase 1/2, prospective, 24-month, paired-eye clinical trial was conducted in 75 glaucoma patients with study eye baseline mean TOP of 25.2 (range 22-36) mmHg after washout. An intraocular implant having the composition as described in US Patent Publication No. 2015-0118279 as formulation 2, as described in TABLE 1 of the specification (6, 10, 15, or 20 μg dose strength) was administered intracamerally in the study eye; the fellow eye was treated with topical bimatoprost solution 0.03% once a day. Long-term TOP-lowering effect was assessed by TOP, time to additional TOP-lowering treatment, and percentage of patients without additional TOP-lowering treatment. Patients were permitted rescue topical medication or a single repeat treatment with BimSR. Results are presented for the 10 and 15 μg dose strengths of BimSR (n=21 for each) that are continuing in development.
Up to 4 and 6 months, 95.2% and 66.7% of patients, respectively, were controlled on the initial BimSR 10 or 15 μg treatment without need for rescue medication or implant retreatment. The median time to additional TOP-lowering treatment after BimSR administration was 38-39 weeks.
A single administration of BimSR 10 or 15 μg controlled TOP up to 6 months in 66.7% of patients and 23.8% of patients at 24 months.

[7] = Ocular pharmacokinetics after topical bimatoprost (study PK-97-032); format: in vivo; conditions: monkey; topical bimatoprost 0.1% BID
[8] = Systemic pharmacokinetics after intracameral Bimatoprost SR (study TX12102); format: in vivo; conditions: dogs; intracameral Bimatoprost SR 10, 15 & 20 μg; blood; LLOQ 0.025 ng/mL (AGN-192024), 0.05 ng/mL (AGN-191522)
[9] = Ocular pharmacokinetics after topical bimatoprost (study PK-98-003); format: in vivo; conditions: monkey; topical bimatoprost 0.1% QD

Row | Systemic Concentration ([1]; topical bimatoprost 0.03% QD) | Systemic Concentration ([1]; topical bimatoprost 0.1% BID) | Aqueous Humor Concentration [2] | Systemic Concentration [4] | Systemic Concentration [5] | Aqueous Humor Concentration [7] | Tissues Concentration Cornea [7] | Tissues Concentration ICB [7] | Systemic Concentration [8] | Aqueous Humor Concentration [9] | Tissues Concentration Cornea [9] | Tissues Concentration ICB [9] | SMILES | Aqueous Humor Concentration [3] | interaction with prostaglandin (PG) sensitive receptors [6] | mean (SD) TOP (intraocular pressure) (glaucoma patients; fellow eyes of BimSR 10 μg group) | mean (SD) TOP (intraocular pressure) (glaucoma patients; fellow eyes of BimSR 15 μg group)
1 | BLQ^e | BLQ^e | 2.0 ng/mL | 2.41 ng/mL | 0.165 ng/mL |  |  |  |  |  |  |  | O=C(O)CCC/C=C\C[C@@H]1[C@@H](/C=C/[C@@H](O)CCc2ccccc2)[C@H](O)C[C@@H]1O [AGN-191522, bimatoprost acid] | 8.55 ng/mL |  |  | 
2 | 0.397 ng/mL | 1.92 ng/mL | BLQ^d | 0.0822 ng/mL | 0.280 ng/mL | 13.0 ng/mL | 2890 ng/g | 1369 ng/g | BLQ^a | 34.5 ng/mL | 558 ng/g | 797 ng/g | CCNC(=O)CCC/C=C\C[C@@H]1[C@@H](/C=C/[C@@H](O)CCc2ccccc2)[C@H](O)C[C@@H]1O [AGN-192024, bimatoprost] | 2.37 ng/mL | no meaningful interaction | 16.4 (2.1) mmHg | 15.4 (2.4) mmHg
